pIC50, pKd: −log10 of the molar value. Where “and” joins values, the source holds several entries; their conditions need not be identical. Identical values can stand only once.
How the values were obtained:
[1] = test system: NOTCH1; assay: In vitro Notch cellular assay; format: cell-based, human
[2] = molecular target: human α1-acid glycoprotein (AAG) (Homo sapiens, UniProt P02763); assay: Equilibrium dialysis, binding in isolated AAG solution; details: for mean Fu: total drug 500 ng/mL (1,065 nmol/L); for RO4929097 fraction unbound estimated from Equation (A): nK 1.0 × 10^6 L/mol; for maximum binding concentration (nP) of AAG: estimate ± SE
[3] = test system: plasma proteins
[4] = in vitro; details: human, human plasma, pH 7.2
[5] = Clinical plasma pharmacokinetics in patients with advanced breast cancer; format: in vivo, human; details: for Tmax: po, 20 mg
[6] = test system: plasma proteins; remark: listed apart in the source
[7] = molecular target: AAG; details: cited from earlier work
[8] = daily oral 150 mg/d in patients with cancer; cited from earlier work
[9] = molecular target: HSA (Homo sapiens, UniProt P02768); assay: Equilibrium dialysis; format: binding
[10] = Homo sapiens, U2OS, 24 h, read-out: inhibition of cellular Notch activity
[11] = given alone, 20 mg orally, median (interquartile range), n = 8
[12] = single oral dose of 20 mg in 8 patients

human α1-acid glycoprotein (AAG), sequence (P02763 19-201): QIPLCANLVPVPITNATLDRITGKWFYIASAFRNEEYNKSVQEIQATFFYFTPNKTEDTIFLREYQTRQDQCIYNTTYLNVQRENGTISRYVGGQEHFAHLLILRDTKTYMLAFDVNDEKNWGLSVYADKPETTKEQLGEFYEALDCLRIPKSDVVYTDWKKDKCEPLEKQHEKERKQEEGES
HSA, sequence (P02768 25-609): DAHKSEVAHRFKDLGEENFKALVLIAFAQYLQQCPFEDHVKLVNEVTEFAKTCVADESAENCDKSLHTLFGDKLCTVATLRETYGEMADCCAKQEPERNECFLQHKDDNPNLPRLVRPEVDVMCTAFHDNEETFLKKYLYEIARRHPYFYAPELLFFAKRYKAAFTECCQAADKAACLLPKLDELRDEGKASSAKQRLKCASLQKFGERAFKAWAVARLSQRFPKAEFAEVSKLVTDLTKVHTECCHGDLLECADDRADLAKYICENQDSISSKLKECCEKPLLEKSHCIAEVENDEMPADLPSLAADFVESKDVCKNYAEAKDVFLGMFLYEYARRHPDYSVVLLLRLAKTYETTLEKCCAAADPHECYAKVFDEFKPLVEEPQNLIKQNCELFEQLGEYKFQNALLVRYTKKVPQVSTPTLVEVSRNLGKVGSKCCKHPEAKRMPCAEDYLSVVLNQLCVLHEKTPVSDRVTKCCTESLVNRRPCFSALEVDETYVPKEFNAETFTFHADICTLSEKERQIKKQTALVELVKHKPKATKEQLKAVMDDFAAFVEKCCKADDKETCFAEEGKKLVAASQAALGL

CC(C)(C(=O)NCC(F)(F)C(F)(F)F)C(=O)N[C@@H]1C(=O)Nc2ccccc2-c2ccccc21 [RO4929097]
RO4929097 Notch-inhibitory activity in presence of AAG ([1]; AAG 0.5, 1.4, […], total RO4929097 500 and 5,000 nmol/L): significantly reduced | inhibition at 0.05 µM [1, 10]: 2.1% | inhibition at 0.5 µM [1, 10]: 62% | inhibition at 5 µM [1, 10]: 73% | pIC50 ([1]; Homo sapiens, U2OS, read-out: unbound RO4929097 concentration for 50% inhibition of the maximum Notch activity (IC50)): 6.96 | mean Fu ([2]; AAG 0.2 mg/mL): 19.0% | RO4929097 fraction unbound estimated from Equation (A) ([2]; AAG 0.5 mg/mL): 8% | maximum binding concentration (nP) of AAG ([2]; AAG 1.4 mg/mL, Equation (C), GDC-0449 0 μmol/L): 23.1 µmol/L and 23.1 ± 0.9 µmol/L | maximum binding concentration (nP) of AAG ([2]; AAG 1.4 mg/mL, GDC-0449 5 μmol/L): 25.3 ± 1.1 µmol/L | maximum binding concentration (nP) of AAG ([2]; AAG 1.4 mg/mL, GDC-0449 25 μmol/L): 34.9 ± 2.0 µmol/L | RO4929097 fraction unbound estimated from Equation (A) ([2]; AAG 1.4 mg/mL): 3% | mean Fu ([2]; AAG […]): 1.1% | total binding constant (nK) for AAG ([2]; Equation (A), Fu versus protein concentration, nonlinear regression): 1e+06 L/mol and 1.1e+06 L/mol | bound in human plasma [3]: > 97% | fraction unbound at 24 h [4]: 0.047 | Decrease in average systemic exposure to total RO4929097 ([5]; co-administered with GDC-0449): 8.3 fold | Decrease in average unbound RO4929097 exposure ([5]; co-administered with GDC-0449): 1.7 fold | Unbound RO4929097 AUC0–24h [5, 11]: 52.8 (33.2–64.9) nmol/L h | Unbound RO4929097 Cmax [5, 11]: 4.3 (2.7–5.6) nmol/L | AUC(0-t) ([5]; human, plasma, oral, Total RO4929097 AUC0–24h, in combination with GDC-0449 150 mg orally, median (interquartile range), n = 8): 0.723 µM·h | Tmax ([5]; human, plasma, Total RO4929097 Tmax, given alone, 20 mg orally, median (interquartile range), n = 8): 2.5 h | Tmax ([5]; human, plasma, Unbound RO4929097 Tmax, given alone, 20 mg orally, median (interquartile range), n = 8): 1.5 h | Interindividual variability of total RO4929097 AUC0-24h (max/min) ([5]; single oral dose of 20 mg): 16 fold and up to 16 fold | Interindividual variability of total RO4929097 Cmax (max/min) ([5]; single oral dose of 20 mg): 15 fold | Interindividual variability of unbound RO4929097 AUC0-24h (max/min) ([5]; single oral dose of 20 mg): 4 fold | Interindividual variability of unbound RO4929097 Cmax (max/min) ([5]; single oral dose of 20 mg): 3 fold | Unbound RO4929097 AUC0-24h, range among patients ([5]; single oral dose of 20 mg): 0.0281 to 0.113 µM·h | Unbound RO4929097 Cmax, range among patients ([5]; single oral dose of 20 mg): 1.9 to 6.1 nM | Coefficient variation of AUC0-24h, total RO4929097 [5, 12]: 99% | Coefficient variation of AUC0-24h, unbound RO4929097 [5, 12]: 49% | intraindividual variability in RO4929097 fraction unbound ([6]; during the treatment in individual patient): up to 5 fold | interindividual variability in RO4929097 fraction unbound ([6]; patients, alone or in combination with GDC-0449): up to 10 fold

CS(=O)(=O)c1ccc(C(=O)Nc2ccc(Cl)c(-c3ccccn3)c2)c(Cl)c1 [GDC-0449]
pKd ([7]; read-out: Kd for AAG, in vitro equilibrium dialysis): 5.82 | average steady-state plasma concentration of total GDC-0449 [8]: approximately 25 μmol/L | unbound drug levels as % of the total drug [8]: less than 1%

Cc1ccc(NC(=O)c2ccc(CN3CCN(C)CC3)cc2)cc1Nc1nccc(-c2cccnc2)n1 [imatinib]
binding affinity for AAG (Ka) [7]: 1.7e+06 L/mol

CC(C)(C(=O)NCC(F)(F)C(F)(F)F)C(=O)N[C@@H]1C(=O)Nc2ccccc2-c2ccccc21 [RO4929097, RO4929097 (γ-secretase inhibitor)]
pKd [9]: 4.04
